Measured values from patent US7217710B2, “Substituted pyrazolopyrimidines” (SmithKline Beecham Corporation, priority 2001, dated 2007).

Tests used:
Format in all cases: biochemical
[1] = target: T1, GST-TIE2 (intracellular domains of human TIE2) (Homo sapiens, UniProt Q02763); assay: TIE-2 Enzyme Assay (TIE2-E2), LANCE method; conditions: for IC50: read-out: TIE2 PIC50 TIE2-E2 assay
T1 construct: made in house
Source text: TIE-2 Enzyme Assay (TIE2-E2
The TIE-2 enzyme assay uses the LANCE method (Wallac) and GST-TIE2, baculovirus-expressed recombinant constructs of the intracellular domains of human TIE2 (amino acids 762–1104, GenBank Accession # L06139) tagged by GST). The method measures the ability of the purified enzymes to catalyse the transfer of the γ-phosphate from ATP onto tyrosine residues in a biotinylated synthetic peptide, D1–15 (biotin-C6-LEARLVAYEGWVAGKKKamide). This peptide phosphorylation is detected using the following procedure: for enzyme preactivation, GST-TIE2 is incubated for 2 hours at room temperature with 80 μM ATP, 10 mM MgCl2, 0.1 mg/ml BSA, 0.01% Tween 20 and 1 mM DTT in 100 mM HEPES buffer (pH7.4). 5 nM preactivated GST-TIE2 is incubated for 2 hours at room temperature in 96 well plates with 1 uM D1–15 peptide, 80 uM ATP, 10 mM MgCl2, 0.1 mg/ml BSA, 0.01% Tween 20 and titrated test compound (diluted from a 10 mM stock in DMSO, final DMSO concentration is 2.4%) in 100 mM HEPES (pH7.4). The reaction is stopped by the addition of EDTA (final concentration 45 mM). Streptavidin linked-APC (allophycocyanin, PerkinElmer) and europium-labeled anti-phosphotyrosine antibody (PerkinElmer) are then added at the final concentration of 8 nM and 1 nM, respectively. The APC signal is measured using an Wallac Multilabel 1420 counter. (Wallac Berthold Japan). The percent inhibition of activity is calculated relative to blank control wells. The concentration of test compound that inhibits 50% of activity (IC50) is interpolated using nonlinear regression (Levernberg-Marquardt) and the equation, y=Vmax (1−x/(K+x))+Y2, where “K” is equal to the IC50. The IC50 values are converted to pIC50 values, i.e., −log IC50 in Molar concentration.

GST-VEGFR2 = target: T2, GST-VEGFR2 (Homo sapiens, UniProt P35968); assay: VEGF-R2 Enzyme Assay (VEGF-E2), LANCE method; conditions: for IC50: read-out: VEGFR2 PIC50 VEGFR-E2 assay
T2 construct: GST-VEGFR2, baculovirus expressed recombinant constructs of the intracellular domains; made in house
T2 sequence (P35968 786-1356 limits assumed): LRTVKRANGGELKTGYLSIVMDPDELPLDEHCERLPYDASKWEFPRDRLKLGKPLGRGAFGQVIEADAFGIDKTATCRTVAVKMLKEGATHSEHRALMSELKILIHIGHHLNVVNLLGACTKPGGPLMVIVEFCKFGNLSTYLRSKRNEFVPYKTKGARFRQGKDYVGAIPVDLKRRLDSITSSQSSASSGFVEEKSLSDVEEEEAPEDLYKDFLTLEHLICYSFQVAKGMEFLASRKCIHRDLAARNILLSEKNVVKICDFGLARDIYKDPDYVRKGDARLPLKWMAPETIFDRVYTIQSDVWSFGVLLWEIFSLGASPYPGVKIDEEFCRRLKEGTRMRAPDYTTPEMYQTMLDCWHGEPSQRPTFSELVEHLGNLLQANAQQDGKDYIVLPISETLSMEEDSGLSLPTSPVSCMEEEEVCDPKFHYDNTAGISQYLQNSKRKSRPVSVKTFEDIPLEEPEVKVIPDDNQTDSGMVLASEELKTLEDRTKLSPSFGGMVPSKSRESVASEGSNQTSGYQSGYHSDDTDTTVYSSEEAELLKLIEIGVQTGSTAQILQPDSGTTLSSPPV

[2] = target: T3, catalytic domain of human VEGFR3 (Homo sapiens, UniProt P35916, H890Q); assay: VEGFR-3 Homogenous Time-Resolved Fluorescence Assay (VEGFR-3-HTRF); conditions: for IC50: read-out: VEGFR3 PIC50 VEGFR-3-HTRF assay
T3 construct: made in house; host or cells: Sf9 insect cells (baculovirus, pFastBac1)
T3 sequence (P35916 with tags, fused parts or gaps isoform P35916-1 H890Q): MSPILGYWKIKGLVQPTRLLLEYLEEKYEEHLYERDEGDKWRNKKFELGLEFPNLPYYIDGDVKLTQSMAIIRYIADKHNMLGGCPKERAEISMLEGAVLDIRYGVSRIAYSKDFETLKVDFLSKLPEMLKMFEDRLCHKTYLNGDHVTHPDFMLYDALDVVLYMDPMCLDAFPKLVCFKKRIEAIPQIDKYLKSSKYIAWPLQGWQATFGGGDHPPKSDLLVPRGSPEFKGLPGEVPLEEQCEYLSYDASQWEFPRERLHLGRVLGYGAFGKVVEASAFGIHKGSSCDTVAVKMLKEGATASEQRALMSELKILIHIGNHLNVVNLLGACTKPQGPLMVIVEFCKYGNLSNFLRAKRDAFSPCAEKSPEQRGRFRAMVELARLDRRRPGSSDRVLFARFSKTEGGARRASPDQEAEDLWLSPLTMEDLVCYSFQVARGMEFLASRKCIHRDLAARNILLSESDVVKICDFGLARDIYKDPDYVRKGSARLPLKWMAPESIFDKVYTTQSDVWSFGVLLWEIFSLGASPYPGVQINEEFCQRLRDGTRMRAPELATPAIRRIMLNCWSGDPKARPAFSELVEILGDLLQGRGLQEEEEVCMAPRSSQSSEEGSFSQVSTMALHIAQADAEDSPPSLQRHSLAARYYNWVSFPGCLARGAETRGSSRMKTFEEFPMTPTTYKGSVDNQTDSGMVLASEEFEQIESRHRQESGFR
Source text: VEGFR—3-Homogenous Time-Resolved Fluorescence Assay (VEGFR-3-HTRF)
This assay assesses Vascular Endothelial Growth Factor 3 (VEGFR3) tyrosine kinase inhibitory activity in substrate phosphorylation assays. The assay examines the ability of small molecule organic compounds to inhibit the tyrosine phosphorylation of a peptide substrate.
The substrate phosphorylation assays use the VEGFR3 catalytic domain, which is expressed in Sf. 9 insect cells as an amino-terminal GST-tagged fusion protein. The catalytic domain of human VEGFR3 (AA residues #819–1298 based upon GenBank Accession #XM003852) is cloned by PCR from human Placenta Marathon Ready cDNA (Clontech). The PCR product is subcloned into pFastBac1 vector containing an N-terminal GST tag. The resulting pFB/GST/VEGFR3icd vector is used to generate a recombinant baculovirus for protein expression. The VEGFR3 catalytic domain translated sequence is:
Autophosphorylation allows enzymes to be fully activated prior to addition to peptide substrates. The assays are performed using enzyme that has been activated by autophosphorylation via preincubation in buffer with ATP and magnesium. Activated enzyme is then diluted and added to titrated compound and the substrate mix.
200 nM VEGFR3 enzyme is activated for 45 minutes at room temperature by incubating the enzyme in buffer containing 100 mM HEPES (pH7.2), 75 μM ATP, 0.3 mM DTT, 0.1 mg/mL BSA, and 10 mM MgCl2. After activation, VEGFR3 is diluted 100-fold into 2× dilution buffer: 200 mM HEPES (pH 7.5), 0.2 mg/mL BSA, 0.6 mM DTT. 20 μL of the diluted enzyme mix is added to 20 μL of 2× substrate mix (150 μM ATP, 20 mM MgCl2, 0.72 μM biotinylated peptide) in the assay plates. Final assay conditions are: 100 mM HEPES (pH 7.2), 75 μM ATP, 10 mM MgCl2, 0.1 mg/mL BSA, 0.3 mM DTT, 0.36 μM biotinylated peptide, and 1 nM VEGFR3 enzyme. Assay plates are incubated for 1.5 hours at room temperature before the addition of 30 μL 100 mM EDTA to the wells to stop the enzymatic reaction. 40 μL/well of HTRF mix are then added to the assay plates for the detection of phosphorylated substrate. Final assay concentrations are: 100 mM HEPES (pH7.2), 0.1 mg/mL BSA, 15 nM streptavidin-labeled allophycocyanin (PerkinElmer), and 1 nM europium-labeled anti-phosphotyrosine antibody (PerkinElmer). Assay plates are left unsealed and are counted in a Wallac Multilabel Counter 1420 (PerkinElmer).
The data for dose responses are plotted as % Control calculated with the data reduction formula 100*(U1–C2)/(C1–C2) versus concentration of compound where U is the unknown value, C1 is the average control value obtained for DMSO , and C2 is the average control value obtained for 0.1M EDTA. Data are fitted to the curve described by: y=((Vmax*x)/(K+x)) where Vmax is the upper asymptote and K is the IC50.

T1 sequence (Q02763 762-1104): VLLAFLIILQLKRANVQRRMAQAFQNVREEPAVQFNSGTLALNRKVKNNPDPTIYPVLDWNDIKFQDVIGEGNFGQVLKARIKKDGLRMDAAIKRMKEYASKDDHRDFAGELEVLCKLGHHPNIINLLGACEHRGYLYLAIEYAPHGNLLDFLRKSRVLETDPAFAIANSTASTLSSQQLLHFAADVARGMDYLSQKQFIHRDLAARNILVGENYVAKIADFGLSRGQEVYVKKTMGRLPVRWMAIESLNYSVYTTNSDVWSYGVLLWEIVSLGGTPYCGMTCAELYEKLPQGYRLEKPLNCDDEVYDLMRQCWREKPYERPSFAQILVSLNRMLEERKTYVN

IC50 [1] [nM]	IC50 (GST-VEGFR2) [nM]	IC50 [2] [nM]	Compound	TIE2 PIC50 TIE2-E2 assay [1]	VEGFR2 PIC50 VEGFR-E2 assay (GST-VEGFR2)	VEGFR3 PIC50 VEGFR-3-HTRF assay [2]
			1-(2-fluoro-5-trifluoromethyl-phenyl)-3-(4-{methyl-6-(2-oxopyrrolidin-2-yl)-1H-pyrazolo[3,4-d]pyrimidin-3-yl}-phenyl)-urea [Example 61]	+++ (+++ = PIC50 = 7.00 to less than 7.40)	++ (++ = PIC50 = 6.00 to less than 7.00)	+ (+ = PIC50 = 5.00 to less than 6.00)
			1-(Chloro-trifluoromethyl-phenyl)-3-{4-[methyl-(2-morpholin-4-yl -ethylamino)-1H-pyrazolo[3,4-d]pyrimidin-3-yl]-phenyl}-urea [Example 37]	+++ (+++ = PIC50 = 7.00 to less than 7.40)	−− (−− = PIC50 less than 5.00)	+ (+ = PIC50 = 5.00 to less than 6.00)
			2,5-Dichloro-{4-{1-methyl-6-[3-(4-methyl-piperazin-1yl) -propylamino]-1H-pyrazolo[3,4-d]pyrimidin-3-yl}-phenyl}-thiophene-3-sulfonamide [Example 66]	+++ (+++ = PIC50 = 7.00 to less than 7.40)	−− (−− = PIC50 less than 5.00)	−− (−− = PIC50 less than 5.00)
39.8 to 100	1000 to 10000	1000 to 10000	Cn1nc(-c2ccc(NC(=O)Nc3cc(C(F)(F)F)ccc3F)cc2)c2cnc(NCCN3CCOCC3)nc21 [Example 31, 1-(2-Fluoro-5-trifluoromethyl-phenyl)-3-{4-[1-methyl-6-(2-morpholin-4-yl-ethylamino)-1H-pyrazolo[3,4-d]pyrimidin-3-yl]-phenyl}urea]			
			COCCNc1ncc2c(-c3ccc(NC(=O)Nc4cc(C(F)(F)F)ccc4F)cc3)nn(C)c2n1 [Example 32]	+++ (+++ = PIC50 = 7.00 to less than 7.40)	+ (+ = PIC50 = 5.00 to less than 6.00)	+ (+ = PIC50 = 5.00 to less than 6.00)
39.8 to 100	1000 to 10000	100 to 1000	Cn1nc(-c2ccc(NC(=O)Nc3cc(C(C)(C)C)on3)cc2)c2cnc(NCCN3CCOCC3)nc21 [Example 35]			
100 to 1000	1000 to 10000	1000 to 10000	Cn1nc(-c2ccc(NC(=O)Nc3ccc4ccccc4c3)cc2)c2cnc(NCCN3CCOCC3)nc21 [Example 39, 1-{4-[1-Methyl-6-(2-morpholin-4-yl-ethylamino)-1H-pyrazolo[3,4-d]pyrimidin-3-y]-phenyl}-3-naphthalen-2-yl-urea]			
			Cn1nc(-c2ccc(NC(=O)Nc3cc(C(F)(F)F)cc(C(F)(F)F)c3)cc2)c2cnc(NCCN3CCOCC3)nc21 [Example 41, 1-(Bis-trifluoromethyl-phenyl)-3-{4-[1-methyl-6-(2-morpholin-4-yl-ethylamino)-1H-pyrazolo[3,4-d]pyrimidin-3-yl]-phenyl}-urea]	++ (++ = PIC50 = 6.00 to less than 7.00)	−− (−− = PIC50 less than 5.00)	
100 to 1000	> 10000		Cc1cc(-c2nn(C)c3nc(NCCN4CCOCC4)ncc23)ccc1NC(=O)Nc1ccc2ccccc2c1 [Example 46, 1-{2-Methyl-4-[1-methyl-6-(2-morpholin-4-yl-ethylamino)-1H -pyrazolo[3,4-d]pyrimidin-3-yl]-phenyl}-3-naphthalen-2-yl-urea]			
≤ 39.8	1000 to 10000	1000 to 10000	Cn1nc(-c2ccc(NC(=O)Nc3cc(C(F)(F)F)ccc3F)c(F)c2)c2cnc(NCCN3CCOCC3)nc21 [Example 49]			
			Cn1nc(-c2ccc(NC(=O)Nc3cc(C(F)(F)F)cc(C(F)(F)F)c3)c(F)c2)c2cnc(NCCN3CCOCC3)nc21 [Example 53, 1-(3,5-Bis-trifluoromethyl-phenyl)-3-{2-fluoro-[methyl-(2-morpholin-4-yl-ethylamino)-1H-pyrazolo[3,4-d]pyrimidin-3-yl]-phenyl}-urea]	+++ (+++ = PIC50 = 7.00 to less than 7.40)	+ (+ = PIC50 = 5.00 to less than 6.00)	
100 to 1000	> 10000		Cn1nc(-c2ccc(NC(=O)Nc3ccc4ccccc4c3)c(F)c2)c2cnc(NCCN3CCOCC3)nc21 [Example 55]			
			CN(CCN1CCOCC1)c1ncnc2[nH]nc(-c3ccc(NC(=O)Nc4cc(C(F)(F)F)ccc4F)c(C(F)(F)F)c3)c12 [Example 56, 1-(2-Fluoro-5-trifluoromethyl-phenyl)-3-{[methyl-(2-morpholin-4-yl-ethylamino)-1H-pyrazolo[3,4-d]pyrimidin-3-yl]-(2-trifluoromethyl-phenyl)}-urea]	+ (+ = PIC50 = 5.00 to less than 6.00)	+ (+ = PIC50 = 5.00 to less than 6.00)	
1000 to 10000	1000 to 10000	1000 to 10000	Cn1nc(-c2ccc(NS(=O)(=O)c3cccc(Cl)c3Cl)cc2)c2cnc(NCCCN3CCCC3=O)nc21 [Example 67]			
100 to 1000	1000 to 10000		CC(=O)Nc1ncc2c(-c3ccc(NC(=O)Nc4cc(C(F)(F)F)ccc4F)cc3)nn(C)c2n1 [Example 70]			
1000 to 10000	1000 to 10000	100 to 1000	CC(=O)Nc1ncc2c(-c3ccc(NS(=O)(=O)c4cccc(Cl)c4Cl)cc3)nn(C)c2n1 [Example 71]			
100 to 1000	1000 to 10000	1000 to 10000	CC(C)n1nc(-c2ccc(NS(=O)(=O)c3cccc(Cl)c3Cl)cc2)c2cnc(NCCN3CCOCC3)nc21 [Example 77, 2,3-Dichloro-N-{4-(1-isopropyl-6-(2-morpholin-4-yl-ether)-1H -pyrazolo[3,4-d]pyrimidin-3-yl}-phenyl}-benzenesulfonamide]			
39.8 to 100	> 10000	> 10000	Cn1nc(-c2ccc(NC(=O)Nc3cc(C(F)(F)F)ccc3F)cc2)c2cnc(NCCCCCO)nc21 [Example 82]			
100 to 1000	> 10000		Cn1nc(-c2ccc(NC(=O)Nc3cc(C(F)(F)F)ccc3F)cc2)c2cnc(NC(CO)CO)nc21 [Example 83]			
39.8 to 100	1000 to 10000	1000 to 10000	Cn1nc(-c2ccc(NC(=O)Nc3cc(C(F)(F)F)ccc3F)cc2)c2cnc(NCCCNS(C)(=O)=O)nc21 [Example 96, N-[3-(3-{4-[3-(2-Fluoro-5-trifluoromethyl-phenyl)-ureido]-phenyl}-1-methyl-1H-pyrazolo[3,4-d]pyrimidin-6-ylamino)-propyl]-methanesulfonamide]			
